As a reminder, the IC50 is the midpoint of a concentration-inhibition curve.

The values that follow come from US10519177B2, “Heterocyclic compounds and uses thereof” (Plexxikon Inc., priority 2013, dated 2019).

The target of one test is BRD4-BD1 (44-164) (Homo sapiens (Human), UniProt O60885). Description: Alphascreen binding assay BRD4-BD1. Particulars: BRD4(1) H4; read-out: Biochemical activity (IC50 μM) BRD4(1) H4. In outline: (§1)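 In this competition format, compounds displace a biotinylated tetra-acetyl H4 peptide from E. coli-expressed human BRD4 bromodomain constructs captured on nickel chelate beads. The reaction runs at pH 7.5 with 2 mM DTT and detergent for 1 h at room temperature before a 30 min bead step.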
A general note: Bead proximity is the source of the signal in Alpha formats.

The target of another test is BRD4-BD12 (1-477) (Homo sapiens (Human), UniProt O60885). Description: Alphascreen binding assay BRD4-BD12. The conditions noted are these: BRD4(1 2) H4; read-out: Biochemical activity (IC50 μM) BRD4(1 2) H4. Put shortly:
as §1

A further test relates to MV-4-11 cells. Description: Oncology cell growth assay MV-4-11 (CellTiter Glo). The class given is cell-based. The conditions noted are these: Homo sapiens, MV4-11, 72 h; read-out: Cell activity (IC50 μM) MV-4-11 3d-Growth. Put shortly:
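Growth read by CellTiter Glo luminescence after 72 h compound treatment of MLL-AF4-bearing MV-4-11 cells (3000/well). Titration: 8 points, 1:3 steps, maximum 10 μM, 0.2% DMSO final. Data normalized to DMSO wells, four-parameter fit gives pIC50.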
On the technique in general: In ATP-based viability assays light output follows the ATP content of the culture.

The test system of a further test is bromodomain. Briefly: at least one of the bromodomain cell assays of Example 57. The class given is cell-based. The conditions noted are these: at least one of the bromodomain cell assays described in Example 57; read-out: IC50 in at least one of the bromodomain cell assays.

Some results are limits rather than exact numbers.

`Cc1onc(N)c1-c1cnc2ccn(CC3CCC(F)(F)CC3)c2c1` [P-0329, 4-[1-[(4,4-difluorocyclohexyl)methyl]pyrrolo[3,2-b]pyridin-6-yl]-5-methyl-isoxazol-3-amine]: the IC50 was below 1 µM on BRD4-BD1 (44-164), below 1 µM at BRD4-BD12 (1-477), 1 to 10 µM in the test with MV-4-11 cells and below 10000 nM in the test with bromodomain.
Regarding `COC(=O)c1ccc(-c2cn(CC3CCC(F)(F)CC3)c3cc(-c4c(C)noc4C)cnc23)cc1` [P-0330, methyl 4-[1-[(4,4-difluorocyclohexyl)methyl]-6-(3,5-dimethylisoxazol-4-yl)pyrrolo[3,2-b]pyridin-3-yl]benzoate], the half-maximal inhibitory concentration (IC50) at BRD4-BD1 (44-164) was below 1 µM; on BRD4-BD12 (1-477), below 1 µM; in the test on MV-4-11 cells, below 1 µM; with bromodomain, below 10000 nM.
Consider `Cc1noc(C)c1-c1cnc2c(-c3cnn(C)c3)cn(C(CC#N)c3ccccc3)c2c1` (centres unmarked) [P-0331, 3-[6-(3,5-dimethylisoxazol-4-yl)-3-(1-methylpyrazol-4-yl)pyrrolo[3,2-b]pyridin-1-yl]-3-phenyl-propanenitrile], for which the IC50 at BRD4-BD1 (44-164) was below 1 µM; on BRD4-BD12 (1-477), below 1 µM; with MV-4-11 cells it was below 1 µM; with bromodomain, below 10000 nM.
On to `Cc1noc(C)c1-c1cnc2c(-c3cnn(CC(F)(F)F)c3)cn(C(CC#N)c3ccccc3)c2c1` (centres unmarked) [P-0332, 3-[6-(3,5-dimethylisoxazol-4-yl)-3-[1-(2,2,2-trifluoroethyl)pyrazol-4-yl]pyrrolo[3,2-b]pyridin-1-yl]-3-phenyl-propanenitrile], for which the IC50 on BRD4-BD1 (44-164) is below 1 µM; on BRD4-BD12 (1-477), below 1 µM; with MV-4-11 cells, below 1 µM; in the test on bromodomain, below 10000 nM.
Regarding `Cc1noc(C)c1-c1cnc2c(I)cn(Cc3ccccn3)c2c1` [P-0333, 4-[3-iodo-1-(2-pyridylmethyl)pyrrolo[3,2-b]pyridin-6-yl]-3,5-dimethyl-isoxazole], the IC50 is below 1 µM on BRD4-BD1 (44-164), below 1 µM at BRD4-BD12 (1-477), below 1 µM with MV-4-11 cells and below 10000 nM in the test on bromodomain.
Turning to `[2H]C([2H])(C1CCC(F)(F)CC1)n1cc(C#CCO)c2ncc(-c3c(C)noc3C)cc21` [P-0370, 3-[1-[dideuterio-(4,4-difluorocyclohexyl)methyl]-6-(3,5-dimethylisoxazol-4-yl)pyrrolo[3,2-b]pyridin-3-yl]prop-2-yn-1-ol], the IC50 at BRD4-BD1 (44-164) is below 1 µM; at BRD4-BD12 (1-477), below 1 µM; with MV-4-11 cells, below 1 µM; with bromodomain, below 10000 nM.
For the compound `Cc1noc(C)c1-c1cnc2c(-c3ccc(C(=O)O)cc3)cn(S(=O)(=O)c3ccccc3)c2c1` [P-0371, 4-[1-(benzenesulfonyl)-6-(3,5-dimethylisoxazol-4-yl)pyrrolo[3,2-b]pyridin-3-yl]benzoic acid], the IC50 at BRD4-BD1 (44-164) is below 1 µM; at BRD4-BD12 (1-477) it was below 1 µM; in the test on MV-4-11 cells it was below 1 µM; with bromodomain, below 10000 nM.
Turning to `Cc1nnn(C)c1-c1cnc2c(-c3cnn(CC(F)(F)F)c3)cn(CC3(F)CCC(F)(F)CC3)c2c1` [P-0372, 6-(3,5-dimethyltriazol-4-yl)-1-[(1,4,4-trifluorocyclohexyl)methyl]-3-[1-(2,2,2-trifluoroethyl)pyrazol-4-yl]pyrrolo[3,2-b]pyridine], the IC50 at BRD4-BD1 (44-164) is below 1 µM; on BRD4-BD12 (1-477), below 1 µM; in the test with MV-4-11 cells it was below 1 µM; with bromodomain, below 10000 nM.
